In US12098193B2, “Netrin G1 as a biomarker for enhancing tumor treatment efficacy” (Institute For Cancer Research, priority 2017, dated 2024):
Peptide text beside a SMILES is read from it. * marks the point of attachment. Cbz = O=C(OCc1ccccc1)*; CH2F = FC*

What was measured:
Assay type in all cases: cell-based
PDAC cells [1] = assay: cell death quantification of PDAC (CON or NGL1 knockout) cultured alone or co-cultured with CAFs in 3D under stressful conditions; conditions: stressful 3D culture (FIG. 9)
Protocol: NGL1 expression in PDAC determined the mode of cell death under stressful co-culture conditions with CAFs. Referring to FIG. 9 (panel A), cell death quantification of PDAC (CON or knockout) cultured alone in 3D was carried out. Referring to FIG. 9 (panel B), cell death quantification of PDAC (CON or knockout) co-cultured with CAFs (CON or knockout) in 3D was also carried out. […] Also, knockout of NetG1 I CAFs drove PDAC to higher amounts of death across all conditions.

PDAC cells [2] = assay: PDAC survival in stressful culture conditions (serum free, glutamine free) with CAFs; conditions: FIG. 7
Source text: Referring to FIG. 7 (panel B), extracellular matrix produced by NetG1 knockout CAFs is less supportive to PDAC survival. Referring to FIG. 7 (panel C), knockout of NetG1 in CAFs produced less glutamate and glutamine. Referring to FIG. 7 (panel D), knockout of NetG1 in CAFs and knockout of NGL1 in PDAC expressed less glutamine/glutamate related proteins.

PDAC cells [3] = assay: NK cell killing assay in 3D (CAF ECM); conditions: added to NetG1 knockout CAFs; FIG. 11 panel D
Protocol: Knockout of NetG1 in CAFs reduced immunosuppressive cytokine secretion, and CAFs protected PDAC from NK cell induced death in a NetG1/NGL1-dependent manner. Referring to FIG. 11 (panel A), a panel of immunosuppressive and pro-tumor cytokines (GM-CSF, IL-1Beta, CCL20, IL-6, IL-8, TGF-beta) and NK stimulating cytokine (IL-15) was performed. Knockout of NetG1 in CAFs produced less of all cytokines tested, but still produced significant levels of the anti-tumor NK cell cytokine IL-15. Referring to FIG. 11 (panel B), an assay was performed with Granzyme B and IFN-g production in NK cells stimulated with IL-2+IFN-γ (positive controls) or in co-culture conditions with conditioned media or direct contact with CAFs (CON vs knockout of NetG1). Knockout of NetG1 in CAF media or direct contact partially activated NK cells. Referring to FIG. 11 (panel C), an NK cell killing assay in 3D (CAF ECM) was carried out. Knockout of NetG1 in CAFs allowed NK cells to kill PDAC, while CON CAFs protected PDAC.

Structure (SMILES) | mode of cell death of NGL1+ PDAC under caspase inhibition (PDAC cells [1]; NGL1+ PDAC) | cell death of NGL- PDAC under caspase inhibition (PDAC cells [1]; NGL1 knockout PDAC) | PDAC survival after adding back to the stressful culture conditions (PDAC cells [2]) | protection of PDAC from NK cell-induced death (PDAC cells [3])
CC(NC(=O)C(NC(=O)OCc1ccccc1)C(C)C)C(=O)NC(CC(=O)O)C(=O)CF (stereo not drawn) [zvad] (Cbz-Val-Ala-Asp-CH2F; configuration not given here) | driven to necroptotic death | protected from death |  | 
NC(=O)CC[C@H](N)C(=O)O [glutamine] |  |  | partially rescued PDAC survival | 
N[C@@H](CCC(=O)O)C(=O)O [glutamate] |  |  | partially rescued PDAC survival | partially restored protection
